One series addresses NDM-1 (Klebsiella pneumoniae, UniProt C7C422). The experiment in a line: biochemical. The series is classed as biochemical. Conditions: CCF2-FA fluorescence assay, 2 hours at 25° C. An outline of the steps:
(§1)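 Metallo-β-lactamase activity read by fluorescence against CCF2-FA (1.25 μM final) in 100 mM KH2PO4 pH 7 with 0.005% Tween-20 and 10 μM ZnSO4; enzyme final at 1 pM NDM-1, 2 pM IMP-1 or 30 pM VIM-1. Inhibitor at 20 to 0.00063 μM, 2 h at 25° C; IC50 by 4-parameter fit.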

The next series concerns the target IMP-1 (Serratia marcescens, UniProt P52699). The experiment in a line: biochemical. Conditions: CCF2-FA fluorescence assay, 2 hours at 25° C.; read-out: IMP1 IC50. An outline of the steps:
as §1

A further series has as its target VIM-1 (Pseudomonas aeruginosa (strain ATCC 15692 / DSM 22644 / CIP 104116 / JCM 14847 / LMG 12228 / 1C / PRS 101 / PAO1), UniProt A0A0F7KYQ8). The experiment in a line: biochemical. Conditions: CCF2-FA fluorescence assay, 2 hours at 25° C.; read-out: VIM1 IC50. The method, boiled down:
as §1

For another series, the target named is VIM-2 (Escherichia coli, UniProt Q5U7L7). The experiment in a line: biochemical. Conditions: CCF2-FA fluorescence assay; read-out: VIM2 IC50.
The test system of series [1] is Escherichia coli expressing NDM-1 (CLB30016). Type of series: cell-based. Conditions: with imipenem 1 μg/ml; 95% inhibition of bacterial growth. The method, boiled down:
(§2)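 Imipenem 1 μg/ml + inhibitor titration in cation-adjusted MHB (1.1× stock medium); overnight-cultured colonies suspended in saline, diluted 1:100. 35 °C, 22–24 h; absorbance read. MITC95 = lowest compound conc giving 95% growth inhibition.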

Series [2] deals with Klebsiella pneumoniae expressing VIM-1 (IHMA599644). The series is classed as cell-based. Conditions: with imipenem 1 μg/ml; 95% inhibition of bacterial growth. An outline of the steps: as §2
The test system of series [3] is Serratia marcescens expressing IMP-1 (CL5741). Type of series: cell-based. Conditions: with imipenem 1 μg/ml; 95% inhibition of bacterial growth. An outline of the steps:
as §2

In series [4] the test system is P. aeruginosa MB9798 (efflux+, IMP-1 plasmid). Conditions: for MB9798 MITC95 P. aeruginosa uM Efflux WT: efflux + (MB9798) strain, imipenem at 2 μg/mL, in the presence of a class A, C, D serine β-lactamase inhibitor closely related to relebactam; for Efflux ratio: fold difference between efflux+ (MB9798) and efflux− (MB9799) strains. The method, boiled down:
(§3)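 PAO1-derived isogenic pair (oprD+, inducible AmpC), efflux+ MB5919 or efflux− MB5890 parent, carrying an electroporated IMP-1 plasmid from a clinical isolate. Microbroth MIC with fixed imipenem and/or ceftazidime (usually CLSI breakpoint) plus fixed class A/C inhibitor; MBL inhibitor serially titrated, concentration restoring susceptibility recorded.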

The test system of series [5] is P. aeruginosa MB9799 (efflux-, IMP-1 plasmid). The series is classed as cell-based, Pseudomonas aeruginosa. Conditions: efflux − (MB9799) strain; imipenem at 2 μg/mL; in the presence of a class A, C, D serine β-lactamase inhibitor closely related to relebactam. The method, boiled down: as §3

The text below walks through data of patent publication US11207312B2, “Metallo-beta-lactamase inhibitors and methods of use thereof” (priority 2017, dated 2021).

Chain of NDM-1 (C7C422 whole entry, looked up, species assumed): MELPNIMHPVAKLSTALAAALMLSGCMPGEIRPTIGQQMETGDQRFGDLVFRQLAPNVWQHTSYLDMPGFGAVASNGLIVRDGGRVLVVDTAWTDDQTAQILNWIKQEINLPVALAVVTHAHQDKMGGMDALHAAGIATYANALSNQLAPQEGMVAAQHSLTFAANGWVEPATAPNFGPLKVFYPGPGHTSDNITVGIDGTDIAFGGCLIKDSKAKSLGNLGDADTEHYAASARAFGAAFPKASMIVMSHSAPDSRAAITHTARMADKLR
Chain of IMP-1 (P52699 whole entry, looked up, species assumed): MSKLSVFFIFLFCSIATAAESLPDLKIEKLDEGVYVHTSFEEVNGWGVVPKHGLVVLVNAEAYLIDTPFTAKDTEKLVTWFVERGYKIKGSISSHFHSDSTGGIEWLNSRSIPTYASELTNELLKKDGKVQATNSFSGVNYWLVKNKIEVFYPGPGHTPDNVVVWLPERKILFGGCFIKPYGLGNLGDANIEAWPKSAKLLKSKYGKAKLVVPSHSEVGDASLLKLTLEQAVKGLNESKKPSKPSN

Consider `NS(=O)(=O)c1c(S(=O)(=O)N[C@@H]2CCNC2)ccc(N2CCC(CCF)CC2)c1-c1nnn[nH]1` [Example 87, 4-[4-(2-fluoroethyl)piperidin-1-yl]-N1-[(3R)-pyrrolidin-3-yl]-3-(1H-tetrazol-5-yl)benzene-1,2-disulfonamide], for which the IC50 (usually the concentration at which inhibition is half-maximal) on NDM-1 stood at 0.16 nM; at IMP-1, 0.24 nM; on VIM-1, 0.12 nM; at VIM-2, 0.49 nM. For the same molecule, in series [1], the “CLB30016 E. coli MITC95 NDM” value came out at 1.56 µM. In [2], the “IHMA599644 K. pneumoniae MITC95 VIM” value came out at 3.13 µM. Moreover, the “CL5741 S. marcescens MITC95 IMP” value in series [3] came out at 3.13 µM. The “MB9798 MITC95 P. aeruginosa uM Efflux WT” value in series [4] was 12.50 µM. In [4], the Efflux ratio came to 8.00. Also, in series [5], the “MB9799 MITC95 P. aeruginosa uM Efflux Mutant” value came out at 1.56 µM.

As to `NS(=O)(=O)c1c(S(=O)(=O)N[C@@H]2CCNC2)ccc(N2CCC(OCCO)CC2)c1-c1nnn[nH]1` [Example 88, 4-[4-(2-hydroxyethoxy)piperidin-1-yl]-N1-[(3R)-pyrrolidin-3-yl]-3-(1H-tetrazol-5-yl)benzene-1,2-disulfonamide], the IC50 on NDM-1 came out at 0.08 nM; on IMP-1, 0.13 nM; on VIM-1, 0.19 nM; at VIM-2, 0.97 nM. The “CLB30016 E. coli MITC95 NDM” value in [1] came to 12.50 µM. Besides, the “IHMA599644 K. pneumoniae MITC95 VIM” value in series [2] amounted to 12.50 µM. Also, the “CL5741 S. marcescens MITC95 IMP” value in [3] came to 12.50 µM. For the same molecule, the “MB9798 MITC95 P. aeruginosa uM Efflux WT” value in series [4] was 6.25 µM. Also, the Efflux ratio in [4] was found to be 1.00. In addition, the “MB9799 MITC95 P. aeruginosa uM Efflux Mutant” value in [5] was determined as 6.25 µM.

In the case of `NS(=O)(=O)c1c(S(=O)(=O)N[C@@H]2CCNC2)ccc(N2CCC(CF)CC2)c1-c1nnn[nH]1` [Example 89, 4-[4-(fluoromethyl)piperidin-1-yl]-N1-[(3R)-pyrrolidin-3-yl]-3-(1H-tetrazol-5-yl)benzene-1,2-disulfonamide], the IC50 against NDM-1 stood at 0.21 nM; on IMP-1 it was 0.61 nM; on VIM-1, 0.21 nM; at VIM-2 it was 0.66 nM. In addition, the “CLB30016 E. coli MITC95 NDM” value in series [1] came out at 1.56 µM. For the same molecule, the “IHMA599644 K. pneumoniae MITC95 VIM” value in series [2] worked out at 12.50 µM. Besides, the “CL5741 S. marcescens MITC95 IMP” value in series [3] turned out to be 3.13 µM. The “MB9798 MITC95 P. aeruginosa uM Efflux WT” value in series [4] amounted to 3.13 µM. Besides, the Efflux ratio in [4] came to 2.00. Also, the “MB9799 MITC95 P. aeruginosa uM Efflux Mutant” value in [5] was 1.56 µM.

On to `NS(=O)(=O)c1c(S(=O)(=O)N[C@@H]2CCNC2)ccc(N2CCC(C(F)F)CC2)c1-c1nnn[nH]1` [Example 90, 4-[4-(difluoromethyl)piperidin-1-yl]-N1-[(3R)-pyrrolidin-3-yl]-3-(1H-tetrazol-5-yl)benzene-1,2-disulfonamide], for which the IC50 on NDM-1 amounted to 0.43 nM; at IMP-1, 0.77 nM; at VIM-1, 0.34 nM; on VIM-2, 1.02 nM. Further, the “CLB30016 E. coli MITC95 NDM” value in [1] worked out at 3.13 µM. Moreover, the “IHMA599644 K. pneumoniae MITC95 VIM” value in [2] stood at 3.13 µM. The “CL5741 S. marcescens MITC95 IMP” value in series [3] turned out to be 3.13 µM. The “MB9798 MITC95 P. aeruginosa uM Efflux WT” value in [4] is 6.25 µM. In addition, the Efflux ratio in [4] came out at 4.00. In addition, in series [5], the “MB9799 MITC95 P. aeruginosa uM Efflux Mutant” value came out at 1.56 µM.

`NS(=O)(=O)c1c(S(=O)(=O)N[C@@H]2CCNC2)ccc(N2CCC(F)(CO)CC2)c1-c1nnn[nH]1` [Example 91, 4-[4-fluoro-4-(hydroxymethyl)piperidin-1-yl]-N1-[(3R)-pyrrolidin-3-yl]-3-(1H-tetrazol-5-yl)benzene-1,2-disulfonamide]: the IC50 against NDM-1 was determined as 0.42 nM; on IMP-1, 1.26 nM; on VIM-1, 0.47 nM; at VIM-2, 1.65 nM. Moreover, in series [1], the “CLB30016 E. coli MITC95 NDM” value is 3.13 µM. For the same molecule, the “IHMA599644 K. pneumoniae MITC95 VIM” value in series [2] was 6.25 µM. For the same molecule, the “CL5741 S. marcescens MITC95 IMP” value in series [3] is 3.13 µM. The “MB9798 MITC95 P. aeruginosa uM Efflux WT” value in [4] was found to be 3.13 µM. Further, in [4], the Efflux ratio came to 2.00. Also, the “MB9799 MITC95 P. aeruginosa uM Efflux Mutant” value in series [5] was 1.56 µM.

As to `NC(=O)C1CCN(c2ccc(S(=O)(=O)N[C@@H]3CCNC3)c(S(N)(=O)=O)c2-c2nnn[nH]2)C1` (stereo partly drawn) [Example 92, 1-{4-[(3R)-pyrrolidin-3-ylsulfamoyl]-3-sulfamoyl-2-(1H-tetrazol-5-yl)phenyl}pyrrolidine-3-carboxamide], the IC50 came to 0.38 nM against NDM-1, 0.31 nM on IMP-1, 0.3 nM on VIM-1 and 0.74 nM at VIM-2. Moreover, the “CLB30016 E. coli MITC95 NDM” value in series [1] stood at 0.78 µM. The “IHMA599644 K. pneumoniae MITC95 VIM” value in series [2] turned out to be 3.13 µM. In addition, the “CL5741 S. marcescens MITC95 IMP” value in [3] worked out at 1.56 µM. Also, the “MB9798 MITC95 P. aeruginosa uM Efflux WT” value in series [4] was 1.56 µM. Further, in series [4], the Efflux ratio came to 1.00. For the same molecule, the “MB9799 MITC95 P. aeruginosa uM Efflux Mutant” value in [5] turned out to be 1.56 µM.

On to `NS(=O)(=O)c1c(S(=O)(=O)N[C@@H]2CCNC2)ccc(N2CCN(CCCO)CC2)c1-c1nnn[nH]1` [Example 93, 4-[4-(3-hydroxypropyl)piperazin-1-yl]-N1-[(3R)-pyrrolidin-3-yl]-3-(1H-tetrazol-5-yl)benzene-1,2-disulfonamide], for which the IC50 amounted to 1.71 nM against NDM-1, 2.52 nM on IMP-1, 3.62 nM on VIM-1 and 6.73 nM at VIM-2. Moreover, the “CLB30016 E. coli MITC95 NDM” value in series [1] was found to be 0.39 µM. For the same molecule, the “IHMA599644 K. pneumoniae MITC95 VIM” value in series [2] came out at 1.56 µM. Besides, the “CL5741 S. marcescens MITC95 IMP” value in [3] turned out to be 0.20 µM. Besides, in series [4], the “MB9798 MITC95 P. aeruginosa uM Efflux WT” value was found to be 3.13 µM. Further, the Efflux ratio in series [4] amounted to 2.00. In series [5], the “MB9799 MITC95 P. aeruginosa uM Efflux Mutant” value was found to be 1.56 µM.

Regarding `NC(=O)C1CCN(c2ccc(S(=O)(=O)N[C@@H]3CCNC3)c(S(N)(=O)=O)c2-c2nnn[nH]2)CC1` [Example 94, 1-{4-[(3R)-pyrrolidin-3-ylsulfamoyl]-3-sulfamoyl-2-(1H-tetrazol-5-yl)phenyl}piperidine-4-carboxamide], the IC50 was determined as 0.18 nM at NDM-1, 0.5 nM at IMP-1, 0.27 nM on VIM-1 and 1.18 nM on VIM-2. In series [1], the “CLB30016 E. coli MITC95 NDM” value is 3.13 µM. Besides, the “IHMA599644 K. pneumoniae MITC95 VIM” value in series [2] is 6.25 µM. Further, the “CL5741 S. marcescens MITC95 IMP” value in [3] was found to be 6.25 µM. Further, the “MB9798 MITC95 P. aeruginosa uM Efflux WT” value in [4] was found to be 3.13 µM. Also, in [4], the Efflux ratio turned out to be 1.00. Moreover, the “MB9799 MITC95 P. aeruginosa uM Efflux Mutant” value in series [5] came out at 3.13 µM.

In the case of `CC(=O)N[C@@H]1CCN(c2ccc(S(=O)(=O)N[C@@H]3CCNC3)c(S(N)(=O)=O)c2-c2nnn[nH]2)C1` [Example 95, N-[(3R)-1-{4-[(3R)-pyrrolidin-3-ylsulfamoyl]-3-sulfamoyl-2-(1H-tetrazol-5-yl)phenyl}pyrrolidin-3-yl]acetamide], the IC50 was 4.31 nM on NDM-1, 1.55 nM at IMP-1, 1.42 nM at VIM-1 and 6.09 nM at VIM-2. In series [1], the “CLB30016 E. coli MITC95 NDM” value came to 6.25 µM. The “IHMA599644 K. pneumoniae MITC95 VIM” value in series [2] was found to be 12.50 µM. Besides, the “CL5741 S. marcescens MITC95 IMP” value in series [3] is 6.25 µM. Also, the “MB9798 MITC95 P. aeruginosa uM Efflux WT” value in series [4] stood at 6.25 µM. Besides, in [4], the Efflux ratio is recorded as 2.00. In addition, in [5], the “MB9799 MITC95 P. aeruginosa uM Efflux Mutant” value was found to be 3.13 µM.

In the case of `NS(=O)(=O)c1c(S(=O)(=O)N[C@@H]2CCNC2)ccc(N2CC[C@H](CO)C2)c1-c1nnn[nH]1` [Example 96, 4-[(3S)-3-(hydroxymethyl)pyrrolidin-1-yl]-N1-[(3R)-pyrrolidin-3-yl]-3-(1H-tetrazol-5-yl)benzene-1,2-disulfonamide], the IC50 on NDM-1 was 1.21 nM; at IMP-1 it was 0.98 nM; at VIM-1 it was 0.53 nM; at VIM-2 it was 1.02 nM. Also, the “CLB30016 E. coli MITC95 NDM” value in [1] was determined as 3.13 µM. Also, the “IHMA599644 K. pneumoniae MITC95 VIM” value in series [2] amounted to 6.25 µM. For the same molecule, the “CL5741 S. marcescens MITC95 IMP” value in series [3] is 1.56 µM. In [4], the “MB9798 MITC95 P. aeruginosa uM Efflux WT” value is 3.13 µM. In addition, the Efflux ratio in [4] is 2.00. For the same molecule, in series [5], the “MB9799 MITC95 P. aeruginosa uM Efflux Mutant” value came to 1.56 µM.
